# Read-outs that look alike come from different tables or passages of the source.
# Tests used:
# Botrytis cinerea = test: Fungicidal efficacy trial (% control) on Botrytis cinerea, synergy by Colby's equation; assay type: cell-based; details: concentration 0.01 mg/L, observed efficacy
# Excerpt: [table] Colby's equation was used to determine the fungicidal effects expected from the mixtures. The following equation was used to calculate the expected activity of mixtures containing two active ingredients, A and B: Expected=A+B−(A×B/100) • A=observed efficacy of active component A at the same concentration as used in the mixture; • B=observed efficacy of active component B at the same concentration as used in the mixture.
# [1] = test system: spores of Botrytis cinerea; test: EC50 for in vitro inhibition of 50% of fungal population of spores of Botrytis cinerea; assay type: cell-based
# Description: As used herein, according to the Fungicide Resistance Action Committee (FRAC), ‘EC50’ is defined as the fungicide dose that inhibits growth by 50% when compared with a nonamended control.
# The EC50 values were evaluated to determine a lower concentration of the fungicides and the combination to achieve in vitro inhibition of 50% of fungal population of spores of Botrytis cinerea.
Compound,% control (Botrytis cinerea) [%],EC50 ([1]; read-out: EC50) [µg/mL],EC50 [1] [µg/mL]
O=C1C2CC=CCC2C(=O)N1SC(Cl)(Cl)Cl (stereo not shown) [Captan],11.54,0.15,–
COc1ccnc(C(=O)N[C@H]2COC(=O)[C@H](Cc3ccccc3)[C@@H](OC(=O)C(C)C)[C@H](C)OC2=O)c1OCOC(=O)C(C)C [Fenpicoxamide],15.45,–,0.46

# Source: patent US20230371515A1, “FUNGICIDAL COMBINATION” (UPL Limited, priority 2020, published 2023)
